Reference: patent US20220378923A1, “BET DEGRADER” (KYOWA KIRIN CO., LTD., priority 2019, published 2022)

Columns and labels:
Format in all cases: cell-based
Settings in all cases: SU-DHL-4 cells, test compound 100 nmol/L, 24 hours
BRD4 = biological target: T1, BRD4 (Homo sapiens, UniProt O60885); test: Evaluation of BET proteolysis in SU-DHL-4 cell line by Western blotting: BRD4 (Test Example 4)
T1 construct: Changes in the amount of BRD4, BRD2 and BRD3 proteins in the SU-DHL-4 cell line; endogenous in cells; host or cells: SU-DHL-4
Procedure: (§1) The human DLBCL cell line SU-DHL-4 was purchased from DSMZ. SU-DHL-4 was passaged using RPMI1640 medium containing 10 vol % FBS. The culture conditions were 37° C. and 5% CO2.
Anti-BRD4 antibody: BRD4 (E2A7X) Rabbit mAb (Cell Signaling Technology, Cat No. #13440S)
(§2) Changes in the amount of BRD4, BRD2 and BRD3 proteins in the SU-DHL-4 cell line by the test compound (compound 1b, compound 1l or compound P3) were detected by WB. The compound P3 is a compound described as example 14 in the known Patent Document 2 (WO 2015/081284), which was synthesized according to the method described in Patent Document 2 and used in this test.
(§3) The cultured SU-DHL-4 cells were seeded at 6×10^5 cells/well in a transparent 6-well plate (Code No. 140675, Thermo Fisher Scientific). After seeding, the cells were pre-cultured at 37° C. in a carbon dioxide gas incubator for 18 to 25 hours. Next, a 0.1 mmol/L DMSO solution of the test compound was prepared, diluted so that the concentration was 200-fold of the final concentration in RPMI1640 medium containing the above FBS and PS, and 1/200 volume of the diluted solution was added to each well. At this time, the final concentration of DMSO was adjusted to be 0.1 vol %. After adding the test compound, the cells were cultured at 37° C. in a carbon dioxide gas incubator for 24 hours.
(§4) After collecting the cells, the supernatant was aspirated, and Lysis buffer 6 (R&D systems, Cat No. 895561) was added to the pellet at 0.1 mL/sample. After incubating on ice for 60 minutes, the supernatant was collected by centrifugation at 15000 rpm for 10 minutes at 4° C.
(§5) Using Pierce BCA Protein Assay Kit (Thermo Fisher, Cat No. 23225), the protein concentration of each sample was quantified according to the manual attached to the kit, and then was diluted and prepared with Lane Marker Reducing Sample Buffer (5×) (Thermo Fisher, Cat No. 39000) and Lysis buffer 6 to 1 mg/mL. The cells were incubated at 95° C. for 5 minutes to prepare WB samples. WB samples were stored at −30° C. until electrophoresis.
(§6) The WB sample was thawed and used after vortex mixing and spin down. […]

BRD3 = biological target: T2, BRD3 (Homo sapiens, UniProt Q15059); test: Evaluation of BET proteolysis in SU-DHL-4 cell line by Western blotting: BRD3 (Test Example 4)
T2 construct: Changes in the amount of BRD4, BRD2 and BRD3 proteins in the SU-DHL-4 cell line; endogenous in cells; host or cells: SU-DHL-4
Procedure: as §1
Anti-BRD3 antibody: Anti-BRD3 antibody (2088C3a) (Santa Cruz Biotechnology, Cat No. sc-81202)
as §2, §3, §4, §5, §6

BRD2 = biological target: T3, BRD2 (Homo sapiens, UniProt P25440); test: Evaluation of BET proteolysis in SU-DHL-4 cell line by Western blotting: BRD2 (Test Example 4)
T3 construct: Changes in the amount of BRD4, BRD2 and BRD3 proteins in the SU-DHL-4 cell line; endogenous in cells; host or cells: SU-DHL-4
Procedure: as §1
Anti-BRD2 antibody: Brd2 (D8964) Rabbit mAb (Cell Signaling Technology, Cat No. #5848S)
as §2, §3, §4, §5, §6

T3 sequence (P25440 whole entry): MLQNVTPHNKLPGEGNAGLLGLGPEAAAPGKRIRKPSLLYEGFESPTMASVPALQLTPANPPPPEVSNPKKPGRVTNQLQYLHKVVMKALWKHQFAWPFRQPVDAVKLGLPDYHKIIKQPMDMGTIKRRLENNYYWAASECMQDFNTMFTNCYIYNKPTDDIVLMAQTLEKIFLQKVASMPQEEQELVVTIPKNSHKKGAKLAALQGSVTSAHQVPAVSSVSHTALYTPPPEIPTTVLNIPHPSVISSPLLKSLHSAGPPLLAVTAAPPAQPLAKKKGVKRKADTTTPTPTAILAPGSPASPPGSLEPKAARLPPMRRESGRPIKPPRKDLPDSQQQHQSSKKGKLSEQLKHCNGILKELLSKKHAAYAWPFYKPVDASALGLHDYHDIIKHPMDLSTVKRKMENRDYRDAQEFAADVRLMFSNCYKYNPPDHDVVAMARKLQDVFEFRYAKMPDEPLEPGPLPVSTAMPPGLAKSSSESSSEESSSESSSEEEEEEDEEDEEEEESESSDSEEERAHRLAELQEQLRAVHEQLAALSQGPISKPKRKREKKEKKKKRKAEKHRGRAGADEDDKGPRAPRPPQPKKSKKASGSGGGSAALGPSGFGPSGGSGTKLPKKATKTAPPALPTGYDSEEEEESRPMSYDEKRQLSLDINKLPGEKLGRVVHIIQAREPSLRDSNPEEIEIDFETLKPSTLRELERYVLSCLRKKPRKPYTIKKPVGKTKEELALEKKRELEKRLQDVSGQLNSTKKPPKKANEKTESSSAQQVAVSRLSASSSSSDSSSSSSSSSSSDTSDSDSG
T2 sequence (Q15059 whole entry): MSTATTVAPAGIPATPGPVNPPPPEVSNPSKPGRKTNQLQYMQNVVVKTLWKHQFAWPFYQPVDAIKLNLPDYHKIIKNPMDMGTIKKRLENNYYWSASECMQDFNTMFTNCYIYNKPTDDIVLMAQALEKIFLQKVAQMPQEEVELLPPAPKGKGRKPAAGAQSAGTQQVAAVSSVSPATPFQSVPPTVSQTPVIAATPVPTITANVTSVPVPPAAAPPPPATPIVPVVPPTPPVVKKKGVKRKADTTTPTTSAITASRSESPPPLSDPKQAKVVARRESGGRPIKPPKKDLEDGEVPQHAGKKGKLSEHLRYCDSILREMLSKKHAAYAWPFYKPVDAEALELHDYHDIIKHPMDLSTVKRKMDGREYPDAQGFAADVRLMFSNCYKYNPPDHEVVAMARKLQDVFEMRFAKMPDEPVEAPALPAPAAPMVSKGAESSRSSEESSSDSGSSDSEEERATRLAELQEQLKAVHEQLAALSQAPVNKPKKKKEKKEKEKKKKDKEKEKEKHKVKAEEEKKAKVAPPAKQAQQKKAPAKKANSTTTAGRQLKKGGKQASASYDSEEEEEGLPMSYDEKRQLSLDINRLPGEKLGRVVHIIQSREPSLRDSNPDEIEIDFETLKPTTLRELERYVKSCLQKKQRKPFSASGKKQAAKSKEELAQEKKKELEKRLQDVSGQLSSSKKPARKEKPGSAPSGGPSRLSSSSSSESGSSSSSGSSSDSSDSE

## CCNC(=O)C[C@@H]1N=C(c2ccc(SCCCCSc3ccc(C4=N[C@@H](CC(=O)NCC)c5nnc(C)n5-c5ccc(OC)cc54)cc3)cc2)c2cc(OC)ccc2-n2c(C)nnc21 [Compound P3, 2,2′-((4S,4'S)-6,6′-((butane-1,4-diylbis(sulfanediyl))bis(4,1-phenylene))bis(8-methoxy-1-methyl-4H-benzo[f][1,2,4]triazolo[4,3-a][1,4]diazepine-6,4-diyl))bis(N-ethylacetamide), reference compound]
BRD4
  change in amount of BRD4 protein (band in Western blotting, FIG. 1): the band was not faint compared with that of control
BRD3
  change in amount of BRD3 protein (band in Western blotting, FIG. 1): the band was not faint compared with that of control
BRD2
  change in amount of BRD2 protein (band in Western blotting, FIG. 1): the band was not faint compared with that of control
